Measured values: patent publication US11725011B2, “Bicyclic urea kinase inhibitors and uses thereof” (The Broad Institute, Inc., priority 2016, dated 2023)

Columns and labels:
PIK3CA = PIK3CA (Homo sapiens (Human), UniProt P42336); assay: KINOMEscan; format: binding; conditions: 1 uM
PIK3CA (H1047Y) = PIK3CA (H1047Y) (Homo sapiens (Human), UniProt P42336, H1047Y); assay: KINOMEscan; format: binding; conditions: 1 uM
αK3A = αK3A (Homo sapiens (Human), UniProt P49840); assay: KINOMEscan; format: binding; conditions: 1 uM
PRKCI = PRKCI (Homo sapiens (Human), UniProt P41743); assay: KINOMEscan; format: binding; conditions: 1 uM
PAK3 = PAK3 (Homo sapiens (Human), UniProt O75914); assay: KINOMEscan; format: binding; conditions: 1 uM
GRK1 = GRK1 (Homo sapiens (Human), UniProt Q15835); assay: KINOMEscan; format: binding; conditions: 1 uM
PAK1 = PAK1 (Homo sapiens (Human), UniProt Q13153); assay: KINOMEscan; format: binding; conditions: 1 uM
FLT3 (ITD) = assay: KINOMEscan; format: binding; conditions: 1 uM
[1] = biological target: EGFR (L747-S752del, P753S) (Homo sapiens (Human), UniProt P00533, DEL747-752/P753S); assay: KINOMEscan; format: binding; conditions: 1 uM
CDC2L1 = CDC2L1 (Homo sapiens (Human), UniProt P21127); assay: KINOMEscan; format: binding; conditions: 1 uM
MST1 = MST1 (Homo sapiens (Human), UniProt Q13043); assay: KINOMEscan; format: binding; conditions: 1 uM
Sequence of MST1 (Q13043 whole entry): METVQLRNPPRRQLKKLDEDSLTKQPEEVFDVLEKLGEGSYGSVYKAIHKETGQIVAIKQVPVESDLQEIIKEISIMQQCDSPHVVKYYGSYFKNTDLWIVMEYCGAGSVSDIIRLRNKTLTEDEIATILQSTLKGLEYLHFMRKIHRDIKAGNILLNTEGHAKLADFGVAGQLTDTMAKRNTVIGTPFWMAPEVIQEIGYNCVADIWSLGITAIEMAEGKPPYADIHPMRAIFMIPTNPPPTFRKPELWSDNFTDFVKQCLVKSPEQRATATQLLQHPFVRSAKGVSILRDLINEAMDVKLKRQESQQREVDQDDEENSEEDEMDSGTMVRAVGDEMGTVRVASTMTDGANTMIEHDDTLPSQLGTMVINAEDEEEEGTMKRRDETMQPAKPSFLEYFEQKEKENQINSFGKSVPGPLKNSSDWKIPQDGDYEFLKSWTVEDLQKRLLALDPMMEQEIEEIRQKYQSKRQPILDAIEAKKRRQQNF

MRCKA = MRCKA (Homo sapiens (Human), UniProt Q5VT25); assay: KINOMEscan; format: binding; conditions: 1 uM
CASK = CASK (Homo sapiens (Human), UniProt O14936); assay: KINOMEscan; format: binding; conditions: 1 uM
SIK3 = SIK3 (Homo sapiens (Human), UniProt Q9Y2K2); assay: Percent activity against SIK3 at 1 μM; format: biochemical
Sequence of SIK3 (Q9Y2K2 whole entry): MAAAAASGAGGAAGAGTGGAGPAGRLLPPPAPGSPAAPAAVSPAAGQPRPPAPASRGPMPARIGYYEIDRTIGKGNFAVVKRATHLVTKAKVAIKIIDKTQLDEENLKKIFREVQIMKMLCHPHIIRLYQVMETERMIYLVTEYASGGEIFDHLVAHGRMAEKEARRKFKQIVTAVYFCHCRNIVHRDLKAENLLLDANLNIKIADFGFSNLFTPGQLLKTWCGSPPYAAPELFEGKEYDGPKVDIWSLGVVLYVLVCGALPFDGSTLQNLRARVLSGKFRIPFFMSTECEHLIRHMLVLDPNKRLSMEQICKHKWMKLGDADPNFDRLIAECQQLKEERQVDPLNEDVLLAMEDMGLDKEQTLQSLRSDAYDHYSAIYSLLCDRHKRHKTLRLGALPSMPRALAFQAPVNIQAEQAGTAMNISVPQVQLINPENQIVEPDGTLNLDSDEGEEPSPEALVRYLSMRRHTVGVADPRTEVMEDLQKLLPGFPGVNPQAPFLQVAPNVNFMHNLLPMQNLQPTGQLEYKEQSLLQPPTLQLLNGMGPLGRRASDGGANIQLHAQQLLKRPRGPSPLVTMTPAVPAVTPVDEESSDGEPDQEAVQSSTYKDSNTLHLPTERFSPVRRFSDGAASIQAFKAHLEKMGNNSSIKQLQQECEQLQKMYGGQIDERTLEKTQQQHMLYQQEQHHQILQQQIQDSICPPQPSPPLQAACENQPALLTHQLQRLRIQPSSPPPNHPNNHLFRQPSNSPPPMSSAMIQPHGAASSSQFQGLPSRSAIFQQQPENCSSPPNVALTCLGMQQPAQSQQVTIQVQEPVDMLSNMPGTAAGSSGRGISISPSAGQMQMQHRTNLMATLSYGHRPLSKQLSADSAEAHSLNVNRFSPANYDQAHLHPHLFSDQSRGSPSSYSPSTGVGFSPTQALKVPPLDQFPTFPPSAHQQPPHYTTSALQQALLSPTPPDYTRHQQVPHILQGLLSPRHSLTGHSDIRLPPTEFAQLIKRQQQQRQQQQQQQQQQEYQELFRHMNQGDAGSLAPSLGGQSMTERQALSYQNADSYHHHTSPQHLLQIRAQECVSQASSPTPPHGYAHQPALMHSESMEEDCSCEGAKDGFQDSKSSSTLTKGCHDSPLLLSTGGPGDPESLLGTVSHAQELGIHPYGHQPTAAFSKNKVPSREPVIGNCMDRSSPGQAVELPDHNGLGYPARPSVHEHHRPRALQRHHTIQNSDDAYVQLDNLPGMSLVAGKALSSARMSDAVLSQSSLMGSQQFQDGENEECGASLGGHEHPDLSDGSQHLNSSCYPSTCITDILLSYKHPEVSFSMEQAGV

EGFR = EGFR (Homo sapiens (Human), UniProt P00533); assay: KINOMEscan; format: binding; conditions: 1 uM
PRKCQ = PRKCQ (Homo sapiens (Human), UniProt Q04759); assay: KINOMEscan; format: binding; conditions: 1 uM
AURKA = AURKA (Homo sapiens (Human), UniProt O14965); assay: KINOMEscan; format: binding; conditions: 1 uM
CSNK1E = CSNK1E (Homo sapiens (Human), UniProt P49674); assay: KINOMEscan; format: binding; conditions: 1 uM
CLK3 = CLK3 (Homo sapiens (Human), UniProt P49761); assay: KINOMEscan; format: binding; conditions: 1 uM
EIF2AK1 = EIF2AK1 (Homo sapiens (Human), UniProt Q9BQI3); assay: KINOMEscan; format: binding; conditions: 1 uM
SRPK2 = SRPK2 (Homo sapiens (Human), UniProt P78362); assay: KINOMEscan; format: binding; conditions: 1 uM
PIM3 = PIM3 (Homo sapiens (Human), UniProt Q86V86); assay: KINOMEscan; format: binding; conditions: 1 uM
MAP4K5 = MAP4K5 (Homo sapiens (Human), UniProt Q9Y4K4); assay: KINOMEscan; format: binding; conditions: 1 uM
SGK = SGK (Homo sapiens (Human), UniProt O00141); assay: KINOMEscan; format: binding; conditions: 1 uM
YANK3 = YANK3 (Homo sapiens (Human), UniProt Q86UX6); assay: KINOMEscan; format: binding; conditions: 1 uM
MST2 = MST2 (Homo sapiens (Human), UniProt Q13188); assay: KINOMEscan; format: binding; conditions: 1 uM
MLK3 = MLK3 (Homo sapiens (Human), UniProt Q16584); assay: KINOMEscan; format: binding; conditions: 1 uM
ICK = ICK (Homo sapiens (Human), UniProt Q9UPZ9); assay: KINOMEscan; format: binding; conditions: 1 uM
Sequence of ICK (Q9UPZ9 whole entry): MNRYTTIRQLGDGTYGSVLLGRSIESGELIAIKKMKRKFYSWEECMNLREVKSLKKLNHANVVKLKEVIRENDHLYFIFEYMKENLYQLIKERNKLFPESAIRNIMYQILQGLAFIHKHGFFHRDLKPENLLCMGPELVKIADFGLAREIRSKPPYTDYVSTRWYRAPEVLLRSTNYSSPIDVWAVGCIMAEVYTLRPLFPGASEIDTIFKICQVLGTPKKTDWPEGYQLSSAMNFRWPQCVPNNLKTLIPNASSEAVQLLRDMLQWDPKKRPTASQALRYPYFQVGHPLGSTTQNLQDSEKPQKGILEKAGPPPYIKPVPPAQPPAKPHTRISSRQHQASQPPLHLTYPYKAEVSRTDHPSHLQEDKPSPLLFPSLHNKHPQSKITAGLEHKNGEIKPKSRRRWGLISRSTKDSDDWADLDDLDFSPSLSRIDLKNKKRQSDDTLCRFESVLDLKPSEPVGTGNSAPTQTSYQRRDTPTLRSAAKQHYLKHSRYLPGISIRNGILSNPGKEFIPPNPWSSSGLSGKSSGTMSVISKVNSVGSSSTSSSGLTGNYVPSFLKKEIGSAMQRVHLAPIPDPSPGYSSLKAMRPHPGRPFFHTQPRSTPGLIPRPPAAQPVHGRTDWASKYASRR

KIT (A829P) = KIT (A829P) (Homo sapiens (Human), UniProt P10721, A829P); assay: KINOMEscan; format: binding; conditions: 1 uM
TGFBR2 = TGFBR2 (Homo sapiens (Human), UniProt P37173); assay: KINOMEscan; format: binding; conditions: 1 uM
MAP3K4 = MAP3K4 (Homo sapiens (Human), UniProt Q9Y6R4); assay: KINOMEscan; format: binding; conditions: 1 uM
EPHA6 = EPHA6 (Homo sapiens (Human), UniProt Q9UF33); assay: KINOMEscan; format: binding; conditions: 1 uM
Sequence of EPHA6 (Q9UF33 23-1036): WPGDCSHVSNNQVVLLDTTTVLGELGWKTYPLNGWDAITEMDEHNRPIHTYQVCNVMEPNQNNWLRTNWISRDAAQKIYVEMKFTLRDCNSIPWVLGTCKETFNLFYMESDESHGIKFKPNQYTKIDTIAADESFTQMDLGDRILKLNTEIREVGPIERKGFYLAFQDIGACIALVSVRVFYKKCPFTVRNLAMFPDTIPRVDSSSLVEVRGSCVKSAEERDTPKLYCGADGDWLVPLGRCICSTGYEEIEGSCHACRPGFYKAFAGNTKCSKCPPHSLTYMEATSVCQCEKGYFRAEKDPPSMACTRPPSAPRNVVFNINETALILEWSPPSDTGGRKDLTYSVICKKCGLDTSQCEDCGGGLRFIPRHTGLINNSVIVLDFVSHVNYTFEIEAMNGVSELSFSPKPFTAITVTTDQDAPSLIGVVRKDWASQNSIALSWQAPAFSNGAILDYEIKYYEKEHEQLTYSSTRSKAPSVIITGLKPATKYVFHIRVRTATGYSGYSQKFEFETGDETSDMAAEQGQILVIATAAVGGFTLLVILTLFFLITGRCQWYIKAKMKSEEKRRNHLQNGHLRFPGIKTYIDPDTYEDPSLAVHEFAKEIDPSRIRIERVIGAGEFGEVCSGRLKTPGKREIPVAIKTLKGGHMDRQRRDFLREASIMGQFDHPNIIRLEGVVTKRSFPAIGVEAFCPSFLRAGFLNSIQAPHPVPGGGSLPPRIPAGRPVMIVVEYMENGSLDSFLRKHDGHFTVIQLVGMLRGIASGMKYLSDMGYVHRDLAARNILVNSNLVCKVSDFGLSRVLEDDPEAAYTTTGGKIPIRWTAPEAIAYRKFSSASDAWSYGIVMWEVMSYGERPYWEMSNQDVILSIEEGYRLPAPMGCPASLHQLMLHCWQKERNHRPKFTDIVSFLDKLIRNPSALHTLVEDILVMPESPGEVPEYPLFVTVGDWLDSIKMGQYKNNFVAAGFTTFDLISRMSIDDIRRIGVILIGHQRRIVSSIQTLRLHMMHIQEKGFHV

KIT (V559D, T670I) = KIT (V559D, T670I) (Homo sapiens (Human), UniProt P10721, T670I/V559D); assay: KINOMEscan; format: binding; conditions: 1 uM
ADCK3 = ADCK3 (Homo sapiens (Human), UniProt Q8NI60); assay: KINOMEscan; format: binding; conditions: 1 uM
MAPKAPK5 = MAPKAPK5 (Homo sapiens (Human), UniProt Q8IW41); assay: KINOMEscan; format: binding; conditions: 1 uM
PLK1 = PLK1 (Homo sapiens (Human), UniProt P53350); assay: KINOMEscan; format: binding; conditions: 1 uM
Sequence of PLK1 (P53350 whole entry): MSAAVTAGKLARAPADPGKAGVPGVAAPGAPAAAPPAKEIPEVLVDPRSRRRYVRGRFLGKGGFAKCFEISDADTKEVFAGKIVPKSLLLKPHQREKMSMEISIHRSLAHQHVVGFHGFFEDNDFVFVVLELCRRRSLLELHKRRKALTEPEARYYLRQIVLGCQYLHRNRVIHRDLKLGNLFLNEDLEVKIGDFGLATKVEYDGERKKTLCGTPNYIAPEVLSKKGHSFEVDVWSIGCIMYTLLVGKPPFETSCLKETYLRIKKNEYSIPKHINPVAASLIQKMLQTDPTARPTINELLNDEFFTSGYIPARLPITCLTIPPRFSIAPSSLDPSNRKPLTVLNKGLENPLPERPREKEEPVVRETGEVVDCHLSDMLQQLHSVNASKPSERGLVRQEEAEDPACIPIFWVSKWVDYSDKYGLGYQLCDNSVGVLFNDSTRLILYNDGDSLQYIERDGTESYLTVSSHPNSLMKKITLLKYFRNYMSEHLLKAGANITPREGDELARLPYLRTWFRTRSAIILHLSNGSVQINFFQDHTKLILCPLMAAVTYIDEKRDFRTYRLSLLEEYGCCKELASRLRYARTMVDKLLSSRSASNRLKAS

PHKG1 = PHKG1 (Homo sapiens (Human), UniProt Q16816); assay: KINOMEscan; format: binding; conditions: 1 uM
EPHB3 = EPHB3 (Homo sapiens (Human), UniProt P54753); assay: KINOMEscan; format: binding; conditions: 1 uM
Sequence of EPHB3 (P54753 34-998): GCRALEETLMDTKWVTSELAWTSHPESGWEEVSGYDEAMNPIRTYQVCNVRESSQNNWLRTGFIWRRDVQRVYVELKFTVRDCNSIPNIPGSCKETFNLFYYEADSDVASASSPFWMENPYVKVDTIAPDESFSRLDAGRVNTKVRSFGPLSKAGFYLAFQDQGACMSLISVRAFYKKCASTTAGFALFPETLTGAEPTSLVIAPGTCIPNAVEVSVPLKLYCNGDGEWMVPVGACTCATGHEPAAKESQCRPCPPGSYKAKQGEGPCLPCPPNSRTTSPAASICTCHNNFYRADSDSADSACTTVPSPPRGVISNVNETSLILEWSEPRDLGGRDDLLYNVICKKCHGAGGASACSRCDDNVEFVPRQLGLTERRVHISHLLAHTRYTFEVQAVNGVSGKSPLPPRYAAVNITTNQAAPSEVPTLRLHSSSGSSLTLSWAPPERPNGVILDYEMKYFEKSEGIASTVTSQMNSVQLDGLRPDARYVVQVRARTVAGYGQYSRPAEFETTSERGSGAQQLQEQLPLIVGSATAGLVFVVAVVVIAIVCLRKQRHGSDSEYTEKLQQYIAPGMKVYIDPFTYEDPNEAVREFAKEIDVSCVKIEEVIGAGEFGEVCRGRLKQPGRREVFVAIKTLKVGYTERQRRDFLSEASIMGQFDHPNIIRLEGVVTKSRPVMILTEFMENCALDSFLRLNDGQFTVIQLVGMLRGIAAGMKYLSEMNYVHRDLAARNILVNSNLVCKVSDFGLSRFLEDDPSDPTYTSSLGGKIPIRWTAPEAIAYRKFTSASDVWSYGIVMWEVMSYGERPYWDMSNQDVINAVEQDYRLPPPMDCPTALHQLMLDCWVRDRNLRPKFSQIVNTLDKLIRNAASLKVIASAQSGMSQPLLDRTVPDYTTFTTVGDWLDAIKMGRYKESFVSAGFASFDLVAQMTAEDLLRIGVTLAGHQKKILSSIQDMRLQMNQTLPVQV

FGFR3 = FGFR3 (Homo sapiens (Human), UniProt P22607); assay: KINOMEscan; format: binding; conditions: 1 uM
EPHB4 = EPHB4 (Homo sapiens (Human), UniProt P54760); assay: KINOMEscan; format: binding; conditions: 1 uM
TBK1 = TBK1 (Homo sapiens (Human), UniProt Q9UHD2); assay: KINOMEscan; format: binding; conditions: 1 uM

For `COc1ccc(N2C(=O)N(c3c(C)cccc3C)Cc3cnc(Nc4ccc(N5CCN(C)CC5)cc4)nc32)c(OC)c1` [HG-11-136-01], the “KINOMEscan PIK3CA” value (PIK3CA) was 100, the “KINOMEscan PIK3CA (H1047Y)” value (PIK3CA (H1047Y)) was 63 and the “KINOMEscan αK3A” value (αK3A) was 100. The “KINOMEscan PRKCI” value (PRKCI) was 63, the “KINOMEscan PAK3” value (PAK3) was 11 and the “KINOMEscan GRK1” value (GRK1) was 77. The “KINOMEscan PAK1” value (PAK1) was 3.7, the “KINOMEscan FLT3 (ITD)” value (FLT3 (ITD)) was 57 and the “KINOMEscan EGFR (L747-S752del, P753S)” value [1] was 0.95. For the same molecule, the “KINOMEscan CDC2L1” value (CDC2L1) was 79, the “KINOMEscan MST1” value (MST1) was 2.1 and the “KINOMEscan MRCKA” value (MRCKA) was 99. For the same molecule, the “KINOMEscan CASK” value (CASK) was 54, the “Enzyme activity at 1 μM (%) SIK3” value (SIK3; 1 μM) was 9% and the “SIK3 % ACTIVITY” value (SIK3; compound at 1 μM, approximate Km for ATP) was 9%. The “KINOMEscan EGFR” value (EGFR) was 0.7, the “KINOMEscan PRKCQ” value (PRKCQ) was 80 and the “KINOMEscan AURKA” value (AURKA) was 0. For the same molecule, the “KINOMEscan CSNK1E” value (CSNK1E) was 59, the “KINOMEscan CLK3” value (CLK3) was 78 and the “KINOMEscan EIF2AK1” value (EIF2AK1) was 93. For the same molecule, the “KINOMEscan SRPK2” value (SRPK2) was 93, the “KINOMEscan PIM3” value (PIM3) was 90 and the “KINOMEscan MAP4K5” value (MAP4K5) was 0.3. The “KINOMEscan SGK” value (SGK) was 63, the “KINOMEscan YANK3” value (YANK3) was 32 and the “KINOMEscan MST2” value (MST2) was 0.75. For the same molecule, the “KINOMEscan MLK3” value (MLK3) was 28, the “KINOMEscan ICK” value (ICK) was 61 and the “KINOMEscan KIT (A829P)” value (KIT (A829P)) was 3.6. For the same molecule, the “KINOMEscan TGFBR2” value (TGFBR2) was 38, the “KINOMEscan MAP3K4” value (MAP3K4) was 16 and the “KINOMEscan EPHA6” value (EPHA6) was 0.2. For the same molecule, the “KINOMEscan KIT (V559D, T670I)” value (KIT (V559D, T670I)) was 55, the “KINOMEscan ADCK3” value (ADCK3) was 38 and the “KINOMEscan MAPKAPK5” value (MAPKAPK5) was 96. The “KINOMEscan PLK1” value (PLK1) was 60, the “KINOMEscan PHKG1” value (PHKG1) was 100 and the “KINOMEscan EPHB3” value (EPHB3) was 0. For the same molecule, the “KINOMEscan FGFR3” value (FGFR3) was 0.95, the “KINOMEscan EPHB4” value (EPHB4) was 0 and the “KINOMEscan TBK1” value (TBK1) was 37.
